Experiments:
wild oat = experiment: Test Example 5: herbicidal effect by foliage application, plastic box (Table 20, symbol I); type: in vivo, wild oat (Avena fatua); conditions: foliage application
Procedure, shortened: (§1)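 Plants sown in sterilized diluvial soil and grown 14 days in a greenhouse at 25° C to 30° C, then sprayed on the foliage with the compound's emulsion diluted in water to a predetermined herbicide amount. Injury to weeds and crops scored three weeks after application on a visual rating scale.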

persian speedwell = experiment: Test Example 5: herbicidal effect by foliage application, plastic box (Table 20, symbol R); type: in vivo, Persian speedwell (Veronica persica); conditions: foliage application
Procedure, shortened: as §1

rice flat sedge = experiment: Test Example 3: herbicidal effect by foliage application, Wagner pot (Table 18, symbol E); type: in vivo, rice flat sedge (Cyperus iria)
Procedure, shortened: (§2)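 Plants were sown in alluvial soil held under 0.1–0.5 cm standing water and grown 14 days in a greenhouse at 25–30 °C. An emulsifiable formulation, water-diluted to the set dose, was then sprayed onto the foliage, and effects were scored three weeks later using previously defined criteria.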

windgrass = experiment: Test Example 5: herbicidal effect by foliage application, plastic box (Table 20, symbol L); type: in vivo, windgrass (Apera spica-venti); conditions: foliage application
Procedure, shortened: as §1

barnyard grass [1] = experiment: Test Example 5: herbicidal effect by foliage application, plastic box (Table 20, symbol H); type: in vivo, barnyard grass (Echinochloa crus-galli); conditions: foliage application
Procedure, shortened: as §1

redroot pigweed = experiment: Test Example 5: herbicidal effect by foliage application, plastic box (Table 20, symbol N); type: in vivo, redroot pigweed (Amaranthus retroflexus); conditions: foliage application
Procedure, shortened: as §1

chickweed = experiment: Test Example 5: herbicidal effect by foliage application, plastic box (Table 20, symbol P); type: in vivo, common chickweed (Stellaria media); conditions: foliage application
Procedure, shortened: as §1

lambsquarters = experiment: Test Example 5: herbicidal effect by foliage application, plastic box (Table 20, symbol O); type: in vivo, lambsquarters (Chenopodium album); conditions: foliage application
Procedure, shortened: as §1

velvetleaf = experiment: Test Example 5: herbicidal effect by foliage application, plastic box (Table 20, symbol M); type: in vivo, velvetleaf (Abutilon theophrasti); conditions: foliage application
Procedure, shortened: as §1

barnyard grass [2] = experiment: Test Example 3: herbicidal effect by foliage application, Wagner pot (Table 18, symbol H); type: in vivo, barnyard grass (Echinochloa crus-galli)
Procedure, shortened: as §2

false cleavers = experiment: Test Example 5: herbicidal effect by foliage application, plastic box (Table 20, symbol Q); type: in vivo, false cleavers (Galium spurium); conditions: foliage application
Procedure, shortened: as §1

green foxtail = experiment: Test Example 5: herbicidal effect by foliage application, plastic box (Table 20, symbol G); type: in vivo, green foxtail (Setaria viridis); conditions: foliage application
Procedure, shortened: as §1

blackgrass = experiment: Test Example 5: herbicidal effect by foliage application, plastic box (Table 20, symbol J); type: in vivo, blackgrass (Alopecurus myosuroides); conditions: foliage application
Procedure, shortened: as §1

Italian ryegrass = experiment: Test Example 5: herbicidal effect by foliage application, plastic box (Table 20, symbol K); type: in vivo, Italian ryegrass (Lolium multiflorum); conditions: foliage application
Procedure, shortened: as §1

southern crabgrass = experiment: Test Example 5: herbicidal effect by foliage application, plastic box (Table 20, symbol F); type: in vivo, southern crabgrass (Digitaria ciliaris); conditions: foliage application
Procedure, shortened: as §1

Chinese sprangletop = experiment: Test Example 3: herbicidal effect by foliage application, Wagner pot (Table 18, symbol D); type: in vivo, chinese sprangletop (Leptochloa chinensis)
Procedure, shortened: as §2

[3] = 320 g/ha, three weeks after application
[4] = AAH 320 g/ha, three weeks after application
[5] = AAH 485 g/ha, three weeks after application
[6] = 320 g/ha, evaluated three weeks after application
[7] = amount of applied herbicide 320 g/ha

`Cc1nn(C)c(=O)c(-c2c(-c3ccoc3)sc3ccccc23)c1O` [1-081] was tested, and the “herbicidal effect grade, I: wild oat” value (wild oat; [3]) was 0 (Herbicidal rate of 5% or less (almost no effect)), the “herbicidal effect grade, R: persian speedwell” value (persian speedwell; [3]) was 4 (Herbicidal rate of 70% or more and less than 90%) and the “herbicidal effect on E (rice flat sedge), rating 0-5” value (shortened to “herbicidal effect on E … rating 0-5”) (rice flat sedge; 320 g/ha) was 4 (Herbicidal rate of 70% or more and less than 90%). The “herbicidal effect grade, L: windgrass” value (windgrass; [3]) was 0 (Herbicidal rate of 5% or less (almost no effect)), the “herbicidal effect grade, H: barnyard grass” value (barnyard grass [1]; [3]) was 0 (Herbicidal rate of 5% or less (almost no effect)) and the “herbicidal effect grade, N: redroot pigweed” value (redroot pigweed; [3]) was 2 (Herbicidal rate of 20% or more and less than 40%). The “herbicidal effect grade, P: chickweed” value (chickweed; [3]) was 3 (Herbicidal rate of 40% or more and less than 70%), the “herbicidal effect grade, O: lambsquarters” value (lambsquarters; [3]) was 0 (Herbicidal rate of 5% or less (almost no effect)) and the “herbicidal effect grade, M: velvetleaf” value (velvetleaf; [3]) was 3 (Herbicidal rate of 40% or more and less than 70%). The “herbicidal effect on H (barnyard grass), rating 0-5” value (“herbicidal effect on H … rating 0-5” for short) (barnyard grass [2]; 320 g/ha) was 3 (Herbicidal rate of 40% or more and less than 70%), the “herbicidal effect grade, Q: false cleavers” value (false cleavers; [3]) was 2 (Herbicidal rate of 20% or more and less than 40%) and the “herbicidal effect grade, G: green foxtail” value (green foxtail; [3]) was 0 (Herbicidal rate of 5% or less (almost no effect)). For the same compound, the “herbicidal effect grade, J: blackgrass” value (blackgrass; [3]) was 0 (Herbicidal rate of 5% or less (almost no effect)), the “herbicidal effect grade, K: Italian ryegrass” value (Italian ryegrass; [3]) was 3 (Herbicidal rate of 40% or more and less than 70%) and the “herbicidal effect grade, F: southern crabgrass” value (southern crabgrass; [3]) was 0 (Herbicidal rate of 5% or less (almost no effect)). For the same compound, the “herbicidal effect on D (Chinese sprangletop), rating 0-5” value (shortened to “herbicidal effect on D … rating 0-5”) (Chinese sprangletop; 320 g/ha) was 0 (Herbicidal rate of 5% or less (almost no effect)).

With `Cc1nn(C)c(=O)c(-c2c(-c3ccc4c(c3)OCCO4)sc3ccccc23)c1OS(C)(=O)=O` [1-094] the “I: wild oat, herbicidal effect” value (wild oat; [4]) was 0 (Herbicidal rate of 5% or less (almost no effect)), the “R: persian speedwell, herbicidal effect” value (persian speedwell; [4]) was 4 (Herbicidal rate of 70% or more and less than 90%) and the “herbicidal effect on E … rating 0-5” value (rice flat sedge; 320 g/ha) was 3 (Herbicidal rate of 40% or more and less than 70%). The “L: windgrass, herbicidal effect” value (windgrass; [4]) was 0 (Herbicidal rate of 5% or less (almost no effect)), the “H: barnyard grass, herbicidal effect” value (barnyard grass [1]; [4]) was 0 (Herbicidal rate of 5% or less (almost no effect)) and the “N: redroot pigweed, herbicidal effect” value (redroot pigweed; [4]) was 1 (Herbicidal rate of 5% or more and less than 20%). The “P: chickweed, herbicidal effect” value (chickweed; [4]) was 0 (Herbicidal rate of 5% or less (almost no effect)), the “O: lambsquarters, herbicidal effect” value (lambsquarters; [4]) was 1 (Herbicidal rate of 5% or more and less than 20%) and the “M: velvetleaf, herbicidal effect” value (velvetleaf; [4]) was 3 (Herbicidal rate of 40% or more and less than 70%). The “herbicidal effect on H … rating 0-5” value (barnyard grass [2]; 320 g/ha) was 3 (Herbicidal rate of 40% or more and less than 70%), the “Q: false cleavers, herbicidal effect” value (false cleavers; [4]) was 0 (Herbicidal rate of 5% or less (almost no effect)) and the “G: green foxtail, herbicidal effect” value (green foxtail; [4]) was 0 (Herbicidal rate of 5% or less (almost no effect)). For the same compound, the “J: blackgrass, herbicidal effect” value (blackgrass; [4]) was 0 (Herbicidal rate of 5% or less (almost no effect)), the “K: Italian ryegrass, herbicidal effect” value (Italian ryegrass; [4]) was 0 (Herbicidal rate of 5% or less (almost no effect)) and the “F: southern crabgrass, herbicidal effect” value (southern crabgrass; [4]) was 0 (Herbicidal rate of 5% or less (almost no effect)). The “herbicidal effect on D … rating 0-5” value (Chinese sprangletop; 320 g/ha) was 0 (Herbicidal rate of 5% or less (almost no effect)).

In the case of `CCCC(=O)Oc1c(C)nn(C)c(=O)c1-c1c(-c2cc3c(cc2Cl)OCCO3)sc2ccccc12` [1-096], the “I: wild oat, herbicidal effect” value (wild oat; [5]) is reported as 0 (Herbicidal rate of 5% or less (almost no effect)), the “R: persian speedwell, herbicidal effect” value (persian speedwell; [5]) is reported as 5 (Herbicidal rate of 90% or more (almost completely withered)) and the “herbicidal effect on E … rating 0-5” value (rice flat sedge; 485 g/ha) is reported as 0 (Herbicidal rate of 5% or less (almost no effect)). The “L: windgrass, herbicidal effect” value (windgrass; [5]) was 0 (Herbicidal rate of 5% or less (almost no effect)), the “H: barnyard grass, herbicidal effect” value (barnyard grass [1]; [5]) was 3 (Herbicidal rate of 40% or more and less than 70%) and the “N: redroot pigweed, herbicidal effect” value (redroot pigweed; [5]) was 4 (Herbicidal rate of 70% or more and less than 90%). For the same compound, the “P: chickweed, herbicidal effect” value (chickweed; [5]) was 3 (Herbicidal rate of 40% or more and less than 70%), the “O: lambsquarters, herbicidal effect” value (lambsquarters; [5]) was 4 (Herbicidal rate of 70% or more and less than 90%) and the “M: velvetleaf, herbicidal effect” value (velvetleaf; [5]) was 1 (Herbicidal rate of 5% or more and less than 20%). For the same compound, the “herbicidal effect on H … rating 0-5” value (barnyard grass [2]; 485 g/ha) was 5 (Herbicidal rate of 90% or more (almost completely withered)), the “Q: false cleavers, herbicidal effect” value (false cleavers; [5]) was 1 (Herbicidal rate of 5% or more and less than 20%) and the “G: green foxtail, herbicidal effect” value (green foxtail; [5]) was 2 (Herbicidal rate of 20% or more and less than 40%). For the same compound, the “J: blackgrass, herbicidal effect” value (blackgrass; [5]) was 0 (Herbicidal rate of 5% or less (almost no effect)), the “K: Italian ryegrass, herbicidal effect” value (Italian ryegrass; [5]) was 0 (Herbicidal rate of 5% or less (almost no effect)) and the “F: southern crabgrass, herbicidal effect” value (southern crabgrass; [5]) was 2 (Herbicidal rate of 20% or more and less than 40%). The “herbicidal effect on D … rating 0-5” value (Chinese sprangletop; 485 g/ha) was 2 (Herbicidal rate of 20% or more and less than 40%).

In the case of `CCCC(=O)Oc1c(C)nn(C)c(=O)c1-c1c(-c2ccc(Oc3ccccc3)cc2)sc2ccccc12` [1-150], the “I: wild oat, herbicidal effect” value (wild oat; [4]) is reported as 0 (Herbicidal rate of 5% or less (almost no effect)), the “R: persian speedwell, herbicidal effect” value (persian speedwell; [4]) is reported as 5 (Herbicidal rate of 90% or more (almost completely withered)) and the “herbicidal effect on E … rating 0-5” value (rice flat sedge; 320 g/ha) is reported as 3 (Herbicidal rate of 40% or more and less than 70%). The “L: windgrass, herbicidal effect” value (windgrass; [4]) was 0 (Herbicidal rate of 5% or less (almost no effect)), the “H: barnyard grass, herbicidal effect” value (barnyard grass [1]; [4]) was 0 (Herbicidal rate of 5% or less (almost no effect)) and the “N: redroot pigweed, herbicidal effect” value (redroot pigweed; [4]) was 4 (Herbicidal rate of 70% or more and less than 90%). For the same compound, the “P: chickweed, herbicidal effect” value (chickweed; [4]) was 5 (Herbicidal rate of 90% or more (almost completely withered)), the “O: lambsquarters, herbicidal effect” value (lambsquarters; [4]) was 2 (Herbicidal rate of 20% or more and less than 40%) and the “M: velvetleaf, herbicidal effect” value (velvetleaf; [4]) was 3 (Herbicidal rate of 40% or more and less than 70%). The “herbicidal effect on H … rating 0-5” value (barnyard grass [2]; 320 g/ha) was 2 (Herbicidal rate of 20% or more and less than 40%), the “Q: false cleavers, herbicidal effect” value (false cleavers; [4]) was 5 (Herbicidal rate of 90% or more (almost completely withered)) and the “G: green foxtail, herbicidal effect” value (green foxtail; [4]) was 0 (Herbicidal rate of 5% or less (almost no effect)). For the same compound, the “J: blackgrass, herbicidal effect” value (blackgrass; [4]) was 0 (Herbicidal rate of 5% or less (almost no effect)), the “K: Italian ryegrass, herbicidal effect” value (Italian ryegrass; [4]) was 0 (Herbicidal rate of 5% or less (almost no effect)) and the “F: southern crabgrass, herbicidal effect” value (southern crabgrass; [4]) was 0 (Herbicidal rate of 5% or less (almost no effect)). The “herbicidal effect on D … rating 0-5” value (Chinese sprangletop; 320 g/ha) was 3 (Herbicidal rate of 40% or more and less than 70%).

For `Cc1ccc2sc(-c3ccc4c(c3)OCCO4)c(-c3c(O)c(C)nn(C)c3=O)c2c1` [2-158], the “herbicidal effect on I: wild oat (criteria 0-5)” value (wild oat; [6]) was 0 (Herbicidal rate of 5% or less (almost no effect)), the “herbicidal effect on R: persian speedwell (criteria 0-5)” value (persian speedwell; [6]) was 5 (Herbicidal rate of 90% or more (almost completely withered)) and the “herbicidal effect on E: rice flat sedge” value (rice flat sedge; [7]) was 4 (Herbicidal rate of 70% or more and less than 90%). For the same compound, the “herbicidal effect on L: windgrass (criteria 0-5)” value (windgrass; [6]) was 0 (Herbicidal rate of 5% or less (almost no effect)), the “herbicidal effect on H: barnyard grass (criteria 0-5)” value (barnyard grass [1]; [6]) was 0 (Herbicidal rate of 5% or less (almost no effect)) and the “herbicidal effect on N: redroot pigweed (criteria 0-5)” value (redroot pigweed; [6]) was 0 (Herbicidal rate of 5% or less (almost no effect)). For the same compound, the “herbicidal effect on P: chickweed (criteria 0-5)” value (chickweed; [6]) was 5 (Herbicidal rate of 90% or more (almost completely withered)), the “herbicidal effect on O: lambsquarters (criteria 0-5)” value (lambsquarters; [6]) was 0 (Herbicidal rate of 5% or less (almost no effect)) and the “herbicidal effect on M: velvetleaf (criteria 0-5)” value (velvetleaf; [6]) was 2 (Herbicidal rate of 20% or more and less than 40%). The “herbicidal effect on H: barnyard grass” value (barnyard grass [2]; [7]) was 0 (Herbicidal rate of 5% or less (almost no effect)), the “herbicidal effect on Q: false cleavers (criteria 0-5)” value (false cleavers; [6]) was 0 (Herbicidal rate of 5% or less (almost no effect)) and the “herbicidal effect on G: green foxtail (criteria 0-5)” value (green foxtail; [6]) was 0 (Herbicidal rate of 5% or less (almost no effect)). The “herbicidal effect on J: blackgrass (criteria 0-5)” value (blackgrass; [6]) was 0 (Herbicidal rate of 5% or less (almost no effect)), the “herbicidal effect on K: Italian ryegrass (criteria 0-5)” value (Italian ryegrass; [6]) was 0 (Herbicidal rate of 5% or less (almost no effect)) and the “herbicidal effect on F: southern crabgrass (criteria 0-5)” value (southern crabgrass; [6]) was 0 (Herbicidal rate of 5% or less (almost no effect)). For the same compound, the “herbicidal effect on D: Chinese sprangletop” value (Chinese sprangletop; [7]) was 1 (Herbicidal rate of 5% or more and less than 20%).
